Experimental data taken from patent US20200282003A1, “MITOCHONDRIAL-TARGETED AN[…] AGAINST MECHANICAL VENTILATION-INDUCED DIAPHRAGM DYSFUNCTION AND SKELETAL MUSCLE ATROPHY” (Cornell University, priority 2010, published 2020).
Square brackets hold non-standard residues; d marks the D form. Peptide text beside a SMILES is read from it. Dmt = Cc1cc(O)cc(C)c1C[C@H](N)C(=O)O

Experiments:
[1] = test system: several mammalian cell types; conditions: energy-independent manner; cited from earlier work
[2] = mean ± SEM
Description: To analyze mitochondrial ROS emissions following MV-induced diaphragmatic oxidative stress and weakness, rats were randomly assigned to one of three experimental groups (n=12/group): (1) an acutely anesthetized control group; (2) a 12-hour MV group (MV); and 3) a 12-hour MV group treated with the mitochondrial-targeted antioxidant SS-31 (MVSS). Because of the large tissue requirement for our numerous dependent measures, six animals from each experimental group were used for the mitochondrial measures and the remaining six animals in each group were employed in all other biochemical assays.
Animals in the control group were acutely anesthetized with an intraperitoneal (IP) injection of sodium pentobarbital (60 mg/kg body weight). […] The mitochondrial-targeted antioxidant SS-31 was dissolved in saline and delivered in a bolus (loading) dose (3 mg/kg; subcutaneous injection) 15 min prior to initiation of MV. A constant intravenous infusion (0.05 mg/kg/hr) of SS-31 was maintained throughout MV.
All surgical procedures were performed using aseptic techniques. Animals in the MV groups were anesthetized with an IP injection of sodium pentobarbital (60 mg/kg body weight), tracheostomized, and mechanically ventilated with a pressure-controlled ventilator (Servo Ventilator 300, Siemens) for 12 hours with the following settings: upper airway pressure limit: 20 cm H2O, typical pressure generation above PEEP was 6-9 cm H2O, respiratory rate: 80 bpm; and PEEP: 1 cm H2O.
The carotid artery was cannulated to permit the continuous measurement of blood pressure and the collection of blood during the protocol. Arterial blood samples (100 μl per sample) were removed periodically and analyzed for arterial pO2, pCO2 and pH using an electronic blood-gas analyzer (GEM Premier 3000; Instrumentation Laboratory, Lexington, Mass.). Ventilator adjustments were made if arterial PCO2 exceeded 40 mm Hg. Arterial PO2 was maintained >60 mmHg throughout the experiment by increasing the FIO2 (22-26% oxygen).
A venous catheter was inserted into the jugular vein for continuous infusion of sodium pentobarbital (˜10 mg/kg/hr) and fluid replacement. Body temperature was maintained at 37° C. by use of a recirculating heating blanket and heart rate was monitored via a lead II electrocardiograph. Continuous care during the MV protocol included lubricating the eyes, expressing the bladder, removing airway mucus, rotating the animal, and passively moving the limbs. Animals also received an intramuscular injection of glycopyrrolate (0.18 mg/kg) every two hours during MV to reduce airway secretions.

[3] = rats at completion of 12 h MV with SS-31

Molecule | Penetration of the plasma membrane [1] | Arterial PCO2 [2, 3] | Arterial PO2 [2, 3] [mm/Hg] | Arterial pH [2, 3] | Systolic blood pressure [2, 3] [mm/Hg] | Heart rate ([2]; rats at completion of 12 h MV, SS-31 3 mg/kg s.c. bolus + 0.05 mg/kg/hr i.v.) [beats/min]
2′,6′-Dmt-D-Arg-Phe-Lys-NH2 [SS-02] | readily penetrates |  |  |  |  | 
Cc1cc(O)cc(C)c1C[C@H](NC(=O)[C@H](N)CCCNC(=N)N)C(=O)N[C@@H](CCCCN)C(=O)N[C@@H](Cc1ccccc1)C(N)=O [SS-31, D-Arg-2′,6′-Dmt-Lys-Phe-NH2] (H-[dR][Dmt]KF-NH2) |  | 46 ± 1 | 75 ± 5 | 7.41 ± 0.01 | 108 ± 5 | 347 ± 7
